# Laboratory results taken from patent publication US20190022198A1, “Individualized Immunomodulation Therapy for Neurodegenerative Disorders, CNS Injury and Age-Related Dementia” (Yeda Research and Development Co. Ltd., priority 2012, published 2019).
# Assays:
# [1] = test system: 5XFAD mice; assay: Radial arm water maze (RAWM) in GA vaccinated 5XFAD mice; format: in vivo, mouse
# Procedure: Mice were tested for two days on 6 radial arm water maze paradigm in a water pool, as described in Alamed et al., Nat Protoc. 2006, 1(4), 1671-1679. Briefly, mice received an injection of GA as indicated in the examples. On the first day, 15 trials were performed, in trials 1, 3, 5, 7, 9 and 11 the platform was visible, and in all other trials the platform was hidden. On the second day, 12 trials were performed, all of them with hidden platform. The time required to reach the platform and the number of errors (incorrect arm entries) in 1-min time period was recorded.
# To test the effect of different regimens of administration of Cop 1, 5XFAD females were vaccinated subcutaneously (S.C.) with 100 μg Cop 1 dissolved in 200 μl PBS. Three different regimens were compared: 5XFAD+2GA were vaccinated twice, with the second injection given three days after the first; 5XFAD+5GA were vaccinated five times, twice in the first week and once a week for another three weeks, and 5XFAD+daily GA were vaccinated every day for 28 days (19B). One day after the last GA injection, mice were sacrificed and their spleens were analyzed by FACS and compared to WT and untreated 5XFAD littermates. […] Radial arm water maze (RAWM) was performed to 4 groups of 8 months old mice to test mental cognitive performance. […]
# [2] = test system: 5XFAD mice; assay: Cop 1 (GA) vaccination regimens in 5XFAD mice: FoxP3+ T cells in spleen (FACS) and CP (staining); format: in vivo, mouse
# Procedure: For intracellular staining of IFN-γ or IL-17, the cells were incubated with PMA (10 ng/ml; Sigma-Aldrich) and ionomycin (250 ng/ml; Sigma-Aldrich) for 6 h, and Brefeldin-A ([…]; Sigma-Aldrich) was added for the last 4 h. Intracellular labeling of cytokines was done with BD Cytofix/Cytoperm Plus Fixation/Permeabilization kit (cat. no. 555028) according to the manufacturer's protocol. Intracellular staining of FoxP3 was performed using the FoxP3 staining kit (eBioscience) according to the manufacturer's protocol. The following fluorochrome-labeled mAbs were used according to the manufacturers' protocols: FITC-conjugated anti-TCRβ, FITC-conjugated anti-CD44, PE-conjugated anti-CD4, PE-conjugated anti-IL-17A, APC-conjugated anti-IFN-γ, FITC-conjugated anti-CD45.2, Alexa-700-conjugated anti-CD45.2, Percp-Cy5.5-conjugated anti-TCRβ (all from BioLegend), and APC-conjugated anti-FoxP3 (eBioscience). Flow cytometry analysis was performed on each sample using a BD Biosciences LSRII flow cytometer, and the acquired data were analyzed using FlowJo software (Tree star). In each experiment, relevant negative control groups and single stained samples for each tissue were used to determine the populations of interest and to exclude others.
# For whole mount staining of the choroid plexus, isolated tissues were fixed with 2.5% paraformaldehyde (PFA) for several hours, and subsequently transferred to PBS containing 0.05% sodium azide. Prior to staining, the dissected tissues were washed and blocked (20% horse serum, 0.3% Triton X-100, and PBS) for 1 h at room temperature with shaking. Whole mount staining with primary (in PBS containing 2% horse serum and 0.3% Triton X-100) and secondary antibodies (in PBS), was performed for 1h at room temperature, with shaking. Each step was followed by three washes in PBS. […] For morphological quantification, average cross-sectional area of epithelial cells was measured following Nissl staining. Cell borders (20-25 cells per picture) were marked and the area was quantified using Image-Pro Plus software in a blinded fashion. […]
# [3] = daily administration, subjects receiving daily injections; cited from earlier work
substance,measurement,setting,value
Glatiramer Acetate [GA],RAWM performance (mental cognitive performance),[1]; daily administration of GA for 28 days,performed as badly as the unvaccinated 5XFAD mice
same,RAWM performance (mental cognitive performance),"[1]; weekly GA: twice in the first week and once a week for another 3 weeks, compared to unvaccinated 5XFAD",significantly improved
same,fold change of FoxP3+ T cells in spleen,"[2]; 2GA: vaccinated twice, second injection three days after the first, 100 μg S.C., compared to untreated 5XFAD",significant decrease in the fold change of FoxP3^+ T cells
same,incidence of FoxP3+CD3+ T cells in the CP,"[2]; 5XFAD+5GA, compared to untreated 5XFAD littermates",decreased
same,FoxP3+ T cells in the spleens,"[2]; daily GA: every day for 28 days, 100 μg S.C.",promoted the enrichment of FoxP3^+ T cells
same,level of Treg cells in the blood,[3],raises the level of Treg cells in the blood
